Measurements: patent US9630964B2, “Fluoro-9-methyl-β-carbolines” (priority 2013, dated 2017)
In brackets after ≈: the same amount, converted by molar mass.

Key:
NT3 (Neurotrophin 3) = experiment: Quantitative RT-PCR, relative gene expression of NT3 in SH-SY5Y cells; format: cell-based, human; conditions: 30 μM each, 14-day exposition
Description: (§1) SH-SY5Y cell lines, which were provided by the institute of human genetics of university hospital Eppendorf and which they in turn received from Braunschweig resource center, were used again for the RT-PCR experiments (reverse transcriptase polymerase chain reaction) carried out for this purpose.
The cells were incubated in MEM (Minimum essential medium, Life Technologies) with 10% FCS (fetal calf serum, Biochrom AG) and penicillin/streptomycin (Biochrom AG). The cells were seeded with a density of 1×10^5 cells/cm^2 in 25 cm^2 cell culture bottles (Falcon, cell culture treated) with 5 mL medium. […]
The RNA-isolation was done with the HighPure RNA Isolation kit of the company Roche. […] The concentration of RNA was measured with nanoDrop spectrometer and the RNA integrity was determined with the aid of the Bioanalyzer 2100 (Agilent). […]
After the reaction, this run was diluted 1:4 and thereof 2 μL per each quantitative RT-PCR were used. This was performed in a LightCycler 480 under standard conditions in the SybrGreen format with annealing temperatures determined for each primer individually. […]
The specificity was verified by melting curve analysis and subsequent gel electrophoresis. For each PCR the PCR efficiency and the Cq value was determined by the program LinRegPCR and these were used in further calculations. […]

[1] = tested on: DKK1 (Dickkopf-related protein 1); experiment: Quantitative RT-PCR, relative gene expression of DKK1 in SH-SY5Y cells; format: cell-based, human
Description: as §1
The cells were incubated in MEM (Minimum essential medium, Life Technologies) with 10% FCS (fetal calf serum, Biochrom AG) and penicillin/streptomycin (Biochrom AG). The cells were seeded with a density of 1×10^5 cells/cm^2 in 25 cm^2 cell culture bottles (Falcon, cell culture treated) with 5 mL medium. Stock solutions of 10 mmol/L of compounds 9-methyl-β-carboline (AC-002 or 9MβC) and 6-fluoro-9-methyl-β-carboline (AC-102 or 6F9MβC), respectively were prepared in distillated water and sterile filtered. One day after the cell seeding the compounds were added in corresponding amounts (5-55 μL) to reach final concentration in the medium of 10 μM, 20 μM and 30 μM for 6F9MβC and 30 μM, 50 μM and 70 μM for 9MβC. The references received only the corresponding amount of solvent (distilled water). The medium was changed once a week.
The cells were regularly microscopically examined and harvest after 2, 7 and 14 days of incubation time, washed with PBS and immediately frozen at −80° C.
The RNA-isolation was done with the HighPure RNA Isolation kit of the company Roche. This isolation includes a DNaseI digestion. The concentration of RNA was measured with nanoDrop spectrometer and the RNA integrity was determined with the aid of the Bioanalyzer 2100 (Agilent). By using random hexamer primers, protector RNA inhibitor (Roche) and transcriptor reverse transcriptase (fermentas), 300 ng RNA were transcribed into cDNA per each sample.
After the reaction, this run was diluted 1:4 and thereof 2 μL per each quantitative RT-PCR were used. This was performed in a LightCycler 480 under standard conditions in the SybrGreen format with annealing temperatures determined for each primer individually. If possible, exon spanning primers were used.
The specificity was verified by melting curve analysis and subsequent gel electrophoresis. For each PCR the PCR efficiency and the Cq value was determined by the program LinRegPCR and these were used in further calculations. B2M (β2-microglobulin) was identified from multiple reference genes to be suitable for examination conditions. All results are results relative to the corresponding reference conditions, at which only solvent was administered for the specified period of time (i.e. 2 days, 7 days or 14 days). In FIGS. 5A to 5I are also relative gene expressions (relative to reference conditions) presented. Here, the 2-day exposition is presented in light grey, the 7-day exposition in dark grey and the 14-day exposition in black. Every measured value from FIGS. 5A-5I represents a mean value of 3 independent biologic samples.
Analogous to example 4 RT-PCR experiments with the inventive active agent 7-fluoro-9-methyl-β-carboline (7F9MβC) were also performed for some important cellular factors. The experimental procedure was here identical to the experiments with 6-fluoro-9-methyl-β-carboline and 9-methyl-β-carboline. Here the same (like for 6F9MβC) final concentrations of 30 μM, 50 μM and 70 μM 7F9MβC for the culture medium were employed. The examined factors were BDNF (brain-derived neurotrophic factor), Lif (Leukemia inhibitory factor), DRD2S (short variant of dopamine receptor subtype 2) as well as DKK1 (Dickkopf-related protein 1). […]

[2] = tested on: outer hair cells (OHC) in the inner ear; experiment: Immunohistochemical experiments: dying of outer hair cells after acoustic trauma; format: in vivo; conditions: guinea pig, intratympanic, total 0.105 mg per ear, day 14
Description: To induce an acoustic trauma, guinea pigs were anesthetized with 60 mg/kg ketamine and 8 mg/kg xylazine. Then Bepanten ointment (Bayer) was administered to the eyes and the animal was put in a soundproof chamber. A calibrated speaker was placed directly above the head of the animal, wherein it was set to emit a half octave band, centered around 8 kHz, with a volume of 110 dB for duration of 30 minutes.
The thermosensitive, liquid mixture was administered under view by a Hamilton syringe directly in front of the round window membrane of the middle ear (10 μL). The first dose 6-fluoro-9-methyl-β-carboline (e.g. 0.07 mg) was administered one hour after the acoustic trauma in a concentration of 0.007 mg/μL and the second dose 6-fluoro-9-methyl-β-carboline (0.035 mg in a volume of 5 μL) on day 3. Here, only one ear per animal was treated, while the second ear served as intra-individual control. The control here is particularly abbreviated to “contr.”. In comparative experiments it was found, that administration of just an active agent vehicle (hydrogel) has no effect in comparison to a fully untreated ear. For each active agent (including the controls) four guinea pigs were examined.
On day 14 after the acoustic trauma the region of the ear was dissected so that it contained the cochlea. […] In this way the sound induced damage can be localized and quantified. […]

[3] = tested on: BDNF (brain derived neurotrophic factor); experiment: Examination on cellular level: concentration of BDNF; format: cell-based
physchem = conditions: water
Description: Furthermore, the solubility of both compounds in water was determined by preparing concentration series of both compounds in water at room temperature. The concentration at which the compound was barely soluble was determined by external calibration. The corresponding concentration was quantified by HPLC.

[4] = Degradation in liver homogenate to toxic dimethylated degradation products (HPLC); conditions: rat liver homogenate, conclusion
Description: Also a reference measurement with pure 6-fluoro-9-methyl-β-carboline (6F9MβC) was performed.
To simulate the degradation process in the liver, different concentrations (1 μM, 10 μM and 100 μM) of 6-fluoro-9-methyl-β-carboline (6F9MβC) were incubated with homogenized rat liver for an hour under physiological conditions (37° C. in physiological phosphate-buffered sodium chloride solution, PBS). Subsequently, a HPLC measurement of the filtrated extract was carried out.
The characterization of each substance was achieved by high-performance liquid chromatography (HPLC, partly also named as high-pressure liquid chromatography). For HPLC the eluent consisted to 45% of 90% acetonitrile and to 55% of ammonium acetate (40 mM, pH<5). The flow rate was 0.4 mL/min and injection volume was 10 μL. Each sample was diluted with 60% methanol, if the signal was too strong.

Compound: Cn1c2ccc(F)cc2c2ccncc21 [6F9MβC, 6-fluoro-9-methyl-β-carboline]
- NT3 expression relative to expression induced by 9MβC (NT3 (Neurotrophin 3)): approximately 3.5 times
- DKK1 expression compared to the highest concentration of 9MβC ([1]; 10 μM 6F9MβC): comparable or even higher
- DKK1 expression relative to expression induced by 9MβC ([1]; 30 μM each, 14-day exposition): comparable
- acoustic trauma-induced dying of outer hair cells [2]: could be prevented
- increase of the concentration of BDNF [3]: up to three times
- solubility (physchem): 29.7 µg/mL (≈ 148 µM)
- metabolization to known toxic (di-methylated) degradation products [4]: does not lead to toxic di-methylated products
- metabolization to known toxic (di-methylated) degradation products ([4]; listed as 6-fluoro-9-methyl-β-carboline): does not metabolize to known toxic degradation products
